In brackets after ≈: the same amount, converted by molar mass.
Tested on: Euglena wild strain
Experiment: Growth inhibition / drug sensitivity of the Euglena wild strain in KH medium
Assay type: cell-based, Euglena gracilis
Procedure: Euglena gracilis Klebs Z strain (hereafter, “Euglena wild strain”), which has chloroplasts, was used.
Koren-Hutner medium (KH medium) was used as a heterotrophic medium (Table 1). 150 ml of the KH medium adjusted to a pH of 6.8 was placed in a 500 ml Sakaguchi flask and sterilized by autoclaving at 121° C. for 15 minutes. 1 ml of Euglena that reached the stationary phase by culturing for about 4 to 7 days (10 to 15×10^6 cells/ml) was inoculated into the medium, followed by culture with shaking at 27° C. under continuous light conditions for 24 hours. A plate medium was prepared by adding 1.0%(w/v) of agar powder.
The minimum inhibitory concentration of zeocin for the Euglena wild strain in a medium at a pH of 6.8 was examined. […] The growth inhibition was observed even when the number of cells at the start of culture was relatively large (2.0×10^6 cells/ml in a liquid medium, 2.0×10^6 cells/plate in a plate medium).
The influence of cefotaxime, which is used to remove Agrobacterium, on the growth of Euglena in transformation by the Agrobacterium method was examined. The results reveal that cefotaxime had no influence on the growth of the Euglena wild strain to at least 500 μg/ml (FIG. 8). Thus, a selective medium containing cefotaxime was used.

CO/N=C(\C(=O)N[C@@H]1C(=O)N2C(C(=O)O)=C(COC(C)=O)CS[C@H]12)c1csc(N)n1 [cefotaxime]
Influence on the growth of the Euglena wild strain (to at least 500 μg/ml (FIG. 8)): no influence

Cc1c(N)nc([C@H](CC(N)=O)NC[C@H](N)C(N)=O)nc1C(=O)N[C@H](C(=O)N[C@H](C)[C@@H](O)[C@H](C)C(=O)N[C@H](C(=O)NCCC1=N[C@@H](c2nc(C(=O)NCCCCN=C(N)N)cs2)CS1)[C@@H](C)O)[C@@H](O[C@@H]1O[C@@H](CO)[C@@H](O)[C@H](O)[C@@H]1O[C@H]1O[C@H](CO)[C@@H](O)[C@H](OC(N)=O)[C@@H]1O)c1cnc[nH]1 [zeocin]
Minimum inhibitory concentration (growth completely inhibited) (liquid medium, pH of 6.8): 50 µg/mL (≈ 35 µM)
Growth of the Euglena wild strain (medium containing 100 μg/ml of zeocin, liquid medium (FIG. 5) or plate medium (FIG. 6)): almost completely inhibited
Minimum inhibitory concentration (growth nearly inhibited) (plate medium, pH of 6.8): 25 µg/mL (≈ 17.5 µM)

CN[C@@H]1[C@@H](O)[C@@H](O[C@@H]2[C@@H](O)[C@H](O[C@H]3O[C@H]([C@@H](C)O)[C@@H](O)[C@H](O)[C@H]3N)[C@@H](N)C[C@H]2N)OC[C@]1(C)O [G418]
Growth of the Euglena wild strain (as the concentrations increased (FIGS. 9 and 10)): inhibited the growth

From patent publication US20150368655A1, “TRANSFORMED EUGLENA AND PROCESS FOR PRODUCING SAME” (OSAKA PREFECTURE UNIVERSITY PUBLIC CORPORATION, priority 2012, published 2015)
